Source: paper PMC11603075 (Communications Biology, 2024)

Tests used:
[1] = tested on: KDM5B; assay: MALDI–TOF MS demethylation/+16 Da assay, KDM5B; type: biochemical, human; details: 90 min
Description: Fig. 2 Histone H2a fragments are KDM5 and KDM4 substrates. […] See Supplementary Table 6 and Supplementary Fig. 2 for assay conditions and quantification, respectively. […] 0-minute MS spectrum in black, 60/90-minute spectrum in red.
MS-based screening assays with peptides and calf thymus histones were as reported; see Supplementary Table 6 for conditions. Time course assays were based on reported procedures. In brief, equal volumes of the enzyme and substrate solutions were combined to initiate the reaction; 10 µL of 2% (v/v) formic acid (HCOOH) in ddH2O or 100% methanol was added to 10 µL of the reaction mixture to quench reactions at different time points. Unless otherwise stated, time course assays were carried out in triplicate. In some cases, LC–MS was used instead of MALDI-TOF MS to avoid a MALDI matrix induced artefact with the hydroxylated product (Supplementary Fig. 16). […]
Supplementary Figure 2 Histone H2a peptide fragments are substrates of KDM4s and KDM5s.
2 for representative corresponding MALDI–TOF MS traces. Bar graphs comparing % product format ion (+16 Da and demethylation) of H2a(1–20)R3me2a by (a) K DM5 A–D (after 90 minutes) and (b) KDM4A–E ( a ft er 60 minutes), analysed by MALDI– TOF MS. n = (a) 2, (b) 3 (independent assays). See Supplementary Table 6 for assay condit ions. See Figure S13 A 1 for a positive control.
(also on this page, place not known: formation KDM5A–D (after MALDI–TOF conditions. Figure S13A1 KDM4A KDM4B KDM4C KDM4D KDM4E 80% product formation KDM5A KDM5B KDM5C KDM5D % product formation) […]
(§1) [ E nz ym e] [Peptide] [2OG] [Ascorbate] [(NH4)2F e(S O4)2] [TCEP] Buffer pH7.5 Enzyme Cognate substrate (mM) (mM) (mM) (mM) (mM) (mM) [HE PE S]
(§2) Supplementary Table 6 Summary of MS assay conditions for substrate screening. These conditions enabled efficient turnover of established substrates. Reactions were carried out at 37 °C unless otherwise st ated. […]

[2] = molecular target: T1, KDM4E (Homo sapiens, UniProt B2RXH2); assay: MALDI–TOF MS time course / specific activity, KDM4E; type: biochemical
T1 construct: KDM4E1–337; made in house; host or cells: E. coli
T1 sequence (B2RXH2 1-337): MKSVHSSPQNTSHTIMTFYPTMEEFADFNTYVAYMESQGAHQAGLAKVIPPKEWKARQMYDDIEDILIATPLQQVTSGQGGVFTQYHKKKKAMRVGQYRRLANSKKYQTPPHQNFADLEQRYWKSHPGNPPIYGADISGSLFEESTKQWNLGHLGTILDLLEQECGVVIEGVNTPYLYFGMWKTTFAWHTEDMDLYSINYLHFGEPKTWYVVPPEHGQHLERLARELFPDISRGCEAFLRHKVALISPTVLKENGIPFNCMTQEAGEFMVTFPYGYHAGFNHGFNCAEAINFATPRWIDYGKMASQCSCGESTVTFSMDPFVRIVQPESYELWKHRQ
Protocol: MS-based screening assays with peptides and calf thymus histones were as reported; see Supplementary Table 6 for conditions. Time course assays were based on reported procedures. In brief, equal volumes of the enzyme and substrate solutions were combined to initiate the reaction; 10 µL of 2% (v/v) formic acid (HCOOH) in ddH2O or 100% methanol was added to 10 µL of the reaction mixture to quench reactions at different time points. Unless otherwise stated, time course assays were carried out in triplicate. In some cases, LC–MS was used instead of MALDI-TOF MS to avoid a MALDI matrix induced artefact with the hydroxylated product (Supplementary Fig. 16).
Data collected from time course assay(s) were used to plot the % conversion vs time (min) using GraphPad Prism5 version 5.04; the resultant slopes were used to fit a line with linear regression to the first-order region of the reaction. The resultant gradient was then converted from % product formation min^−1 to amount of peptide converted (demethylation and / or hydroxylation) in µM.
Supplementary Figure 4 Activity of KDM5C (black circles) with H2a(1–20)R3me2a is greater than that of KDM4E (white circles). (a) A MALDI–TOF MS time course graph of product formation (%) of KDM4E ( −14 Da/+16 Da) and KDM5C (−14 Da) reaction with H2a(1–20)R3me2a versus time (minutes). ~60% substrate depletion was reached after 105 minutes with KDM4E; ~95% of H2a(1–20)R3me2a was demethylated after 1 05 minut e s wit h K DM5 C. (b ) Comparison of specific activities of KDM4E with H2a(1–20)R3me2a (0.15 […]
bars; +/- SD; n = 3 (independent assays). See Supplementary Table 6 for assay condit ions.
(also on this page, place not known: 105 minutes KDM5C. (b) H2a(1 –20)R3me2a with conditions. specific activity (pmol·min-1·μM-1))
(1 picture or pasted object on this page, not shown here)
as §1, §2

Ac - SGR [ me 2a ] GKQ GGKAR AKAKT R SSR [H2a(1–20)R3me2a, H2a(1–20)R3me2a without a biotin tag]
+16 Da (% product formation) ([1]; replicate 1): 0%
demethylation (% product formation) ([1]; replicate 1): 23.54%
+16 Da (% product formation) ([1]; replicate 2): 0%
demethylation (% product formation) ([1]; replicate 2): 18.654%
product formation (−14 Da/+16 Da) ([2]; 0 min, replicate 1): 0%
product formation (−14 Da/+16 Da) ([2]; 0 min, replicate 2): 0%
product formation (−14 Da/+16 Da) ([2]; 0 min, replicate 3): 0%
product formation (−14 Da/+16 Da) ([2]; 5 min, replicate 1): 3.341%
product formation (−14 Da/+16 Da) ([2]; 5 min, replicate 2): 5.787%
product formation (−14 Da/+16 Da) ([2]; 5 min, replicate 3): -0.8025%
product formation (−14 Da/+16 Da) ([2]; 15 min, replicate 1): -0.9416%
product formation (−14 Da/+16 Da) ([2]; 15 min, replicate 2): 5.091%
product formation (−14 Da/+16 Da) ([2]; 15 min, replicate 3): -0.7355%
product formation (−14 Da/+16 Da) ([2]; 30 min, replicate 1): 22.6189%
product formation (−14 Da/+16 Da) ([2]; 30 min, replicate 2): 32.3989%
product formation (−14 Da/+16 Da) ([2]; 30 min, replicate 3): 20.757%
product formation (−14 Da/+16 Da) ([2]; 45 min, replicate 1): 29.5376%
product formation (−14 Da/+16 Da) ([2]; 45 min, replicate 2): 33.3686%
product formation (−14 Da/+16 Da) ([2]; 45 min, replicate 3): 28.8806%
product formation (−14 Da/+16 Da) ([2]; 60 min, replicate 1): 41.1416%
product formation (−14 Da/+16 Da) ([2]; 60 min, replicate 2): 35.7562%
product formation (−14 Da/+16 Da) ([2]; 60 min, replicate 3): 37.6375%
product formation (−14 Da/+16 Da) ([2]; 75 min, replicate 1): 48.3844%
product formation (−14 Da/+16 Da) ([2]; 75 min, replicate 2): 47.469%
product formation (−14 Da/+16 Da) ([2]; 75 min, replicate 3): 46.9153%
product formation (−14 Da/+16 Da) ([2]; 90 min, replicate 1): 60.0026%
product formation (−14 Da/+16 Da) ([2]; 90 min, replicate 2): 49.7939%
product formation (−14 Da/+16 Da) ([2]; 90 min, replicate 3): 54.7629%
product formation (−14 Da/+16 Da) ([2]; 105 min, replicate 1): 62.5982%
product formation (−14 Da/+16 Da) ([2]; 105 min, replicate 2): 62.265%
product formation (−14 Da/+16 Da) ([2]; 105 min, replicate 3): 60.6438%
substrate depletion ([2]; KDM4E, 105 minutes): ~ 60%
specific activity ([2]; KDM4E, mean of n = 3, SD 0.010): 0.15 pmol min^−1 µM^−1
specific activity ([2]; KDM4E, repeat 1): 0.1634 pmol·min-1·μM-1
specific activity ([2]; KDM4E, repeat 2): 0.141 pmol·min-1·μM-1
specific activity ([2]; KDM4E, repeat 3): 0.1586 pmol·min-1·μM-1
